From BigSolDB 2.1

## O=[N+]([O-])c1cc([N+](=O)[O-])c(Cl)cc1Cl
In 1,2-dichloroethane, 298.15 K
  solubility (mole fraction): 0.138
In 1,2-dichloroethane, 303.15 K
  solubility (mole fraction): 0.156
In 1,2-dichloroethane, 308.15 K
  solubility (mole fraction): 0.176
In 1,2-dichloroethane, 313.15 K
  solubility (mole fraction): 0.199
In 1,2-dichloroethane, 318.15 K
  solubility (mole fraction): 0.224
In 1,2-dichloroethane, 323.15 K
  solubility (mole fraction): 0.251
In 1,2-dichloroethane, 328.15 K
  solubility (mole fraction): 0.282
In 1,2-dichloroethane, 333.15 K
  solubility (mole fraction): 0.316
In DMF, 298.15 K
  solubility (mole fraction): 0.286
In DMF, 303.15 K
  solubility (mole fraction): 0.308
In DMF, 308.15 K
  solubility (mole fraction): 0.329
In DMF, 313.15 K
  solubility (mole fraction): 0.353
In DMF, 318.15 K
  solubility (mole fraction): 0.378
In DMF, 323.15 K
  solubility (mole fraction): 0.406
In DMF, 328.15 K
  solubility (mole fraction): 0.436
In DMF, 333.15 K
  solubility (mole fraction): 0.469
In DMSO, 298.15 K
  solubility (mole fraction): 0.192
In DMSO, 303.15 K
  solubility (mole fraction): 0.215
In DMSO, 308.15 K
  solubility (mole fraction): 0.241
In DMSO, 313.15 K
  solubility (mole fraction): 0.269
In DMSO, 318.15 K
  solubility (mole fraction): 0.3
In DMSO, 323.15 K
  solubility (mole fraction): 0.332
In DMSO, 328.15 K
  solubility (mole fraction): 0.368
In DMSO, 333.15 K
  solubility (mole fraction): 0.408
In NMP, 298.15 K
  solubility (mole fraction): 0.362
In NMP, 303.15 K
  solubility (mole fraction): 0.381
In NMP, 308.15 K
  solubility (mole fraction): 0.4
In NMP, 313.15 K
  solubility (mole fraction): 0.421
In NMP, 318.15 K
  solubility (mole fraction): 0.444
In NMP, 323.15 K
  solubility (mole fraction): 0.468
In NMP, 328.15 K
  solubility (mole fraction): 0.495
In NMP, 333.15 K
  solubility (mole fraction): 0.524
In acetone, 288.15 K
  solubility (mole fraction): 0.169
In acetone, 293.15 K
  solubility (mole fraction): 0.187
In acetone, 298.15 K
  solubility (mole fraction): 0.206
In acetone, 303.15 K
  solubility (mole fraction): 0.227
In acetone, 308.15 K
  solubility (mole fraction): 0.249
In acetone, 313.15 K
  solubility (mole fraction): 0.273
In acetone, 318.15 K
  solubility (mole fraction): 0.298
In acetone, 323.15 K
  solubility (mole fraction): 0.326
In acetonitrile, 298.15 K
  solubility (mole fraction): 0.129
In acetonitrile, 303.15 K
  solubility (mole fraction): 0.154
In acetonitrile, 308.15 K
  solubility (mole fraction): 0.183
In acetonitrile, 313.15 K
  solubility (mole fraction): 0.217
In acetonitrile, 318.15 K
  solubility (mole fraction): 0.254
In acetonitrile, 323.15 K
  solubility (mole fraction): 0.296
In acetonitrile, 328.15 K
  solubility (mole fraction): 0.344
In acetonitrile, 333.15 K
  solubility (mole fraction): 0.397
In chloroform, 293.15 K
  solubility (mole fraction): 0.108
In chloroform, 298.15 K
  solubility (mole fraction): 0.128
In chloroform, 303.15 K
  solubility (mole fraction): 0.149
In chloroform, 308.15 K
  solubility (mole fraction): 0.175
In chloroform, 313.15 K
  solubility (mole fraction): 0.205
In chloroform, 318.15 K
  solubility (mole fraction): 0.238
In chloroform, 323.15 K
  solubility (mole fraction): 0.274
In chloroform, 328.15 K
  solubility (mole fraction): 0.319
In dichloromethane, 278.15 K
  solubility (mole fraction): 0.0915
In dichloromethane, 283.15 K
  solubility (mole fraction): 0.106
In dichloromethane, 288.15 K
  solubility (mole fraction): 0.121
In dichloromethane, 293.15 K
  solubility (mole fraction): 0.138
In dichloromethane, 298.15 K
  solubility (mole fraction): 0.158
In dichloromethane, 303.15 K
  solubility (mole fraction): 0.181
In dichloromethane, 308.15 K
  solubility (mole fraction): 0.205
In ethanol, 298.15 K
  solubility (mole fraction): 0.00702
In ethanol, 303.15 K
  solubility (mole fraction): 0.00858
In ethanol, 308.15 K
  solubility (mole fraction): 0.0104
In ethanol, 313.15 K
  solubility (mole fraction): 0.0126
In ethanol, 318.15 K
  solubility (mole fraction): 0.0156
In ethanol, 323.15 K
  solubility (mole fraction): 0.0189
In ethanol, 328.15 K
  solubility (mole fraction): 0.0232
In ethanol, 333.15 K
  solubility (mole fraction): 0.0282
In ethyl acetate, 298.15 K
  solubility (mole fraction): 0.17
In ethyl acetate, 303.15 K
  solubility (mole fraction): 0.189
In ethyl acetate, 308.15 K
  solubility (mole fraction): 0.207
In ethyl acetate, 313.15 K
  solubility (mole fraction): 0.228
In ethyl acetate, 318.15 K
  solubility (mole fraction): 0.251
In ethyl acetate, 323.15 K
  solubility (mole fraction): 0.277
In ethyl acetate, 328.15 K
  solubility (mole fraction): 0.306
In ethyl acetate, 333.15 K
  solubility (mole fraction): 0.336
In isopropanol, 298.15 K
  solubility (mole fraction): 0.00322
In isopropanol, 303.15 K
  solubility (mole fraction): 0.00429
In isopropanol, 308.15 K
  solubility (mole fraction): 0.00581
In isopropanol, 313.15 K
  solubility (mole fraction): 0.00763
In isopropanol, 318.15 K
  solubility (mole fraction): 0.01
In isopropanol, 323.15 K
  solubility (mole fraction): 0.0131
In isopropanol, 328.15 K
  solubility (mole fraction): 0.0173
In isopropanol, 333.15 K
  solubility (mole fraction): 0.0223
In methanol, 298.15 K
  solubility (mole fraction): 0.00929
In methanol, 303.15 K
  solubility (mole fraction): 0.0112
In methanol, 308.15 K
  solubility (mole fraction): 0.0135
In methanol, 313.15 K
  solubility (mole fraction): 0.0163
In methanol, 318.15 K
  solubility (mole fraction): 0.0197
In methanol, 323.15 K
  solubility (mole fraction): 0.0236
In methanol, 328.15 K
  solubility (mole fraction): 0.0284
In methanol, 333.15 K
  solubility (mole fraction): 0.0341
In n-butanol, 298.15 K
  solubility (mole fraction): 0.00624
In n-butanol, 303.15 K
  solubility (mole fraction): 0.00794
In n-butanol, 308.15 K
  solubility (mole fraction): 0.0101
In n-butanol, 313.15 K
  solubility (mole fraction): 0.0128
In n-butanol, 318.15 K
  solubility (mole fraction): 0.016
In n-butanol, 323.15 K
  solubility (mole fraction): 0.0201
In n-butanol, 328.15 K
  solubility (mole fraction): 0.025
In n-butanol, 333.15 K
  solubility (mole fraction): 0.0308
In tetrachloromethane, 298.15 K
  solubility (mole fraction): 0.0153
In tetrachloromethane, 303.15 K
  solubility (mole fraction): 0.0207
In tetrachloromethane, 308.15 K
  solubility (mole fraction): 0.0276
In tetrachloromethane, 313.15 K
  solubility (mole fraction): 0.0368
In tetrachloromethane, 318.15 K
  solubility (mole fraction): 0.049
In tetrachloromethane, 323.15 K
  solubility (mole fraction): 0.0638
In tetrachloromethane, 328.15 K
  solubility (mole fraction): 0.0835
In tetrachloromethane, 333.15 K
  solubility (mole fraction): 0.108
In toluene, 298.15 K
  solubility (mole fraction): 0.201
In toluene, 303.15 K
  solubility (mole fraction): 0.225
In toluene, 308.15 K
  solubility (mole fraction): 0.25
In toluene, 313.15 K
  solubility (mole fraction): 0.277
In toluene, 318.15 K
  solubility (mole fraction): 0.307
In toluene, 323.15 K
  solubility (mole fraction): 0.34
In toluene, 328.15 K
  solubility (mole fraction): 0.374
In toluene, 333.15 K
  solubility (mole fraction): 0.413
